Square brackets hold non-standard residues; d marks the D form. Peptide text beside a SMILES is read from it. * marks the point of attachment. dPhe(4-NHCONH2) = NC(=O)Nc1ccc(C[C@@H](N)C(=O)O)cc1; Dihydroorotyl(S) = O=C1C[C@@H](C(=O)*)NC(=O)N1; dPhe(4-Cl) = N[C@H](Cc1ccc(Cl)cc1)C(=O)O; Phe(4-NH2) = Nc1ccc(C[C@H](N)C(=O)O)cc1; d2Nal = N[C@H](Cc1ccc2ccccc2c1)C(=O)O; Lys(iPr) = CC(C)NCCCC[C@H](N)C(=O)O; d3Pal = N[C@H](Cc1cccnc1)C(=O)O
Assays:
[1] = test system: Myc-CaP/AS tumors; experiment: Myc-CaP/AS tumor growth in FVB mice, ADT with or without immunization; format: in vivo; details: degarelix alone, MycCaP model
Method: Briefly, male FVB mice (n=8) were implanted with MycCaP tumors, treated with degarelix (or sham), and immunized weekly with pTVG-AR or control pTVG4. FIG. 8A, splenocytes were collected and analyzed for immune responses against MycCaP/CR tumor cells by intracellular cytokine staining (left panel) and AR peptide-stimulated splenocytes from pTVG-AR-immunized mice were measured for ability to lyse MycCap/AS vs. MycCap/CR tumor cells (right panel). FIG. 8B depicts mice followed for tumor volume. In all panels, * indicates p<0.05 by Student's t-test. FIG. 8C depicts tumor volume post-challenge of control (sham), degarelix+pTVG4 and degarelix+pTVG-AR.
FVB mice were inoculated subcutaneously with […] Myc-CaP/AS tumor cells, and followed daily for the presence of palpable tumors. Once tumors were palpable, mice were treated subcutaneously with either degarelix (25 mg/kg) or a vehicle sham treatment every four weeks. For immunization studies, degarelix-treated animals were randomized to weekly immunization with 100 μg pTVG4 or pTVG-AR beginning one day after receiving degarelix. Tumor growth was measured at least three times weekly, and tumor volumes calculated as we've published (19). At the time of euthanasia, tumors and spleens were collected. […]

[2] = test system: Myc-CaP/AS tumors; experiment: AR expression in MycCaP tumors in vivo after chemical castration, intracellular staining; design: species or system FVB mice; details: MycCaP model in vivo, degarelix vs sham, tumors at outgrowth
Source text: Briefly, Human 22Rv1 prostate cancer cells cultured in androgen replete (FCS) or—deprived (CSS) conditions (FIG. 7A), or mouse MycCaP cells serially passaged in untreated (MycCaP/AS) or castrate (MycCaP/CR) mice (FIG. 7B) were collected and analyzed for AR expression by qPCR (left panels), ELISA (center panels), and intracellular staining (ICS, right panels). FIG. 7C, FVB mice were challenged with MycCaP/AS tumor cells, and given degarelix or a sham treatment. At the time of outgrowth, tumors were collected and analyzed for AR expression by intracellular flow cytometry (example histogram with samples stained with IgG or AR-intracellular antibodies; quantified in right panels). FIG. 7D, AR-specific CD8+ T cells were cultured with 22Rv1/FCS or 22Rv1/CSS cells, and evaluated for T-cell activation by CD69 expression (left panel), IFNγ and TNFα cytokine expression (center panel), and cytotoxicity (right panel). In all panels, * indicates p<0.05 by Student's t-test.
FVB mice were inoculated subcutaneously with […] Myc-CaP/AS tumor cells, and followed daily for the presence of palpable tumors. Once tumors were palpable, mice were treated subcutaneously with either degarelix (25 mg/kg) or a vehicle sham treatment every four weeks. […] Tumor growth was measured at least three times weekly, and tumor volumes calculated as we've published (19). […]

[3] = test system: PTEN-deficient prostate tumors; experiment: Autochthonous prostate tumors in PbCre+ PTENfl/fl mice, PET/CT and necropsy; format: in vivo; details: androgen deprivation (degarelix) vs sham, pre- to post-treatment
Method: FVB mice were inoculated subcutaneously with […] Myc-CaP/AS tumor cells, and followed daily for the presence of palpable tumors. Once tumors were palpable, mice were treated subcutaneously with either degarelix (25 mg/kg) or a vehicle sham treatment every four weeks. For immunization studies, degarelix-treated animals were randomized to weekly immunization with 100 μg pTVG4 or pTVG-AR beginning one day after receiving degarelix. Tumor growth was measured at least three times weekly, and tumor volumes calculated as we've published (19). At the time of euthanasia, tumors and spleens were collected. For studies using PTEN-deficient mice, animals began receiving degarelix (25 mg/kg) at 20 weeks (+/−two weeks) of age, followed by biweekly immunization with 100 μg pTVG4 or pTVG-AR beginning one day after ADT. Animals were treated until 40 weeks of age (+/−two weeks) before tissue collection.
All mice were intravenously administered between 5-8 MBq of 124I-CLR1404 and then micro positron emission tomography/computed tomography (PET/CT) scanned 96 hrs post-injection. During scanning, mice were anesthetized with 2% isoflurane inhalation gas mixed with 1 L/min of pure oxygen (27). […]
All PET and CT images were co-registered. Image data were analyzed using the General Analysis tools provided by Siemens Inveon Research Workplace (Siemens Medical Solutions). […]

[4] = test system: prostate tumor cells; experiment: AR expression in prostate tumor cells in vitro after treatment with AR antagonists; format: cell-based; details: after treatment with AR antagonist

Row | SMILES | tumor growth [1] | AR expression in tumors [2] | 124I-CLR1404 mean and max tumor uptake [3] | AR expression in prostate tumor cells [4]
1 | CC(=O)N[C@H](Cc1ccc2ccccc2c1)C(=O)N[C@H](Cc1ccc(Cl)cc1)C(=O)N[C@H](Cc1cccnc1)C(=O)N[C@@H](CO)C(=O)N[C@@H](Cc1ccc(NC(=O)[C@@H]2CC(=O)NC(=O)N2)cc1)C(=O)N[C@H](Cc1ccc(NC(N)=O)cc1)C(=O)N[C@@H](CC(C)C)C(=O)N[C@@H](CCCCNC(C)C)C(=O)N1CCC[C@H]1C(=O)N[C@H](C)C(N)=O [degarelix] (Ac-[d2Nal][dPhe(4-Cl)][d3Pal]S[Phe(4-NH2)](Dihydroorotyl(S))[dPhe(4-NHCONH2)]L[Lys(iPr)]P[dA]-NH2) | delay in tumor growth | increased AR expression in tumors | decreased 124I-CLR1404 mean and max tumor uptake | –
2 | CNC(=O)c1ccc(N2C(=S)N(c3ccc(C#N)c(C(F)(F)F)c3)C(=O)C2(C)C)cc1F [enzalutamide] | – | – | – | increased AR expression

Source: patent US10881719B2, “Combinatorial androgen deprivation with an androgen receptor vaccine” (Wisconsin Alumni Research Foundation, priority 2016, dated 2021)
